The source of these data is ChEMBL document CHEMBL2150934, “Identification of a potent and metabolically stable series of fluorinated diphenylpyridylethanamine-based cholesteryl ester transfer protein inhibitors” (Bioorg Med Chem Lett, 2012).

Common to all, as to type: ADME, organism-based
Series [1] is described as follows: AUC (0 to 8 hrs) in transgenic mouse expressing human CETP/apoB100 at 30 mg/kg, po. Further details: time < 8 hr, dose 30 mg/kg, route oral. Particulars: plasma.
Series [2] is described as follows: Plasma concentration in transgenic mouse expressing human CETP/apoB100 at 30 mg/kg, po at 2 hrs. Set-up: dose 30 mg/kg, route oral.
Series [3] in a line: Plasma concentration in transgenic mouse expressing human CETP/apoB100 at 30 mg/kg, po at 4 hrs. Further details: dose 30 mg/kg, route oral.
Series [4] can be described thus: Plasma concentration in transgenic mouse expressing human CETP/apoB100 at 30 mg/kg, po at 8 hrs. Further details: dose 30 mg/kg, route oral.

Turning to `O=C(N[C@@H]1CCC(F)(F)C1)N[C@@](Cc1ccccc1)(c1cc(F)cc(OC(F)(F)C(F)F)c1)c1ccc(Cl)cn1`, the AUC(0-t) at 8 h in series [1] stood at 3.2 µM·h. In series [2], this compound came in with a concentration at 2 h of 1.07 µM. The compound further displayed a concentration at 4 h in series [3] of 0.249 µM. Further, in series [4], the concentration at 8 h was 0.112 µM.

In general, AUC(0-t) refers to the area under the concentration-time curve up to a stated or last time point.
